Measured values: publication PMC8921975 (Journal of the American Chemical Society, 2020)
Entries after “also recorded” stand apart in the source; their conditions may differ. Positions of bridges follow the written chain, without caps; N, C: chain ends. Non-standard residues stand in square brackets, D forms with d. No end group written: not given here. pGlu = O=C1CC[C@@H](C(=O)O)N1

Experiments:
[1] = system: N-terminal truncated form of TDP1 (Δ147TDP1); type: biochemical, human; conditions: N-terminally truncated TDP1 lacking regulatory domain (Δ1–147); FRET assay, PBS pH 7.4, 80 mM KCl, 1 mM TCEP
full-length TDP1 = full-length TDP1 (Homo sapiens, UniProt Q9NUW8); test: Steady-state; type: biochemical
TDP1 = TDP1 inhibitory activity of Axinella-derived peptides; type: biochemical; conditions: Figure S2
[2] = full-length TDP1 0.5 nM, 0.01–3 μM FRET substrate, recifin A 0, 0.2, 0.5, 1, 2 μM, PBS pH 7.4, 80 mM KCl, 1 mM TCEP, quadruplicate, 1 h
[3] = full-length TDP1, Figure S10 (Km and Vmax ratios)

Sequence of full-length TDP1 (Q9NUW8 whole entry): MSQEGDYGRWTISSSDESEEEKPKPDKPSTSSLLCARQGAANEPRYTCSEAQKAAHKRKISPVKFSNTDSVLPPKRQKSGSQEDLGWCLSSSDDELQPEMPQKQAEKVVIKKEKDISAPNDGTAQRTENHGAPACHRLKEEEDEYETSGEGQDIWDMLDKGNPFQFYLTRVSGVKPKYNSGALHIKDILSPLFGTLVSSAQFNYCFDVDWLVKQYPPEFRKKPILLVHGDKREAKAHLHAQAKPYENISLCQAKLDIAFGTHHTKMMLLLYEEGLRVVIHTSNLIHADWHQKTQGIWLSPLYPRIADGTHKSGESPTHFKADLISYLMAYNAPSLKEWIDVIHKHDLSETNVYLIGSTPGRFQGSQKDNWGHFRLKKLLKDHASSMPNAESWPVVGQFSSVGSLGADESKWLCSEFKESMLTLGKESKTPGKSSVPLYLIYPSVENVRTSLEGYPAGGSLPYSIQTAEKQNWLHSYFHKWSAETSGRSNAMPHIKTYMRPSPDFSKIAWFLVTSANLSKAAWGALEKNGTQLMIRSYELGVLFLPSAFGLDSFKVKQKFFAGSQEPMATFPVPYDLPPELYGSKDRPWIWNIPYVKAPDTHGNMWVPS

[pGlu]EAFCYSDRFCQNYIGSIPDCCFGRGSYSFELQPPPWECYQC (disulfide 5-21, 11-39, 22-42) [recifin A]
inhibition of Δ147TDP1 enzymatic activity (in words) [1]: not affecting the activity of a truncated catalytic domain of TDP1; also recorded: only a minimal effect; also recorded: inhibited full-length TDP1 but not N-terminally truncated TDP1 (Δ147TDP1); also recorded: does not affect the enzymatic activity of truncated TDP1; also recorded: unaffected by recifin A | Km for the substrate, effect of recifin A (in words) (full-length TDP1; [2]): increased the Km for the substrate | Vmax, effect of recifin A (in words) (full-length TDP1; [2]): modest increase of the observed Vmax value; also recorded: increased the Vmax of the enzyme | recifin A-dependent increase in the Km for the substrate (full-length TDP1; [3]): approximately 6 fold | recifin A-dependent increase of observed Vmax (full-length TDP1; [3]): approximately 1.6 fold | TDP1 inhibitory activity relative to the other Axinella peptides (TDP1): most active peptide
